Data published in ChEMBL document CHEMBL3232858, “Antiangiogenic activity of hypoxylonol C” (J Nat Prod, 2014).
Calls of active or inactive are those of the source.

What was measured:
Conditions in all cases: Homo sapiens
HUVEC [1] = assay: Antiangiogenic activity in HUVEC assessed as inhibition of VEGF-induced cell migration after 22 hrs
HUVEC [2] = assay: Antiangiogenic activity in HUVEC assessed as inhibition of VEGF-induced tube formation at 1 to 20 uM after 11 days; format: functional, cell-based
HUVEC [3] = assay: Antiangiogenic activity in HUVEC assessed as reduction of VEGF-induced integrins alpha3 and beta1 mRNA level at 20 uM after 24 hrs by RT-PCR analysis; format: functional, cell-based
HUVEC [4] = assay: Antiangiogenic activity in HUVEC assessed as inhibition of VEGF-induced cell migration at 1 to 20 uM after 22 hrs
HUVEC [5] = assay: Antiangiogenic activity in HUVEC assessed as reduction of VEGF-induced CDK1 mRNA level at 20 uM after 24 hrs by RT-PCR analysis; format: functional, cell-based
HUVEC [6] = assay: Antiangiogenic activity in HUVEC assessed as inhibition of VEGF-induced tube formation after 11 days; format: functional, cell-based
HUVEC [7] = assay: Antiangiogenic activity in HUVEC assessed as reduction of VEGF-induced tube length at 1 to 20 uM after 11 days; format: functional, cell-based
HUVEC [8] = assay: Antiangiogenic activity in HUVEC assessed as reduction of VEGF-induced cyclins A2 and B1 mRNA level at 20 uM after 24 hrs by RT-PCR analysis; format: functional, cell-based
HUVEC [9] = assay: Antiangiogenic activity in HUVEC assessed as reduction of VEGF-induced vascular endothelial cadherin mRNA level at 20 uM after 24 hrs by RT-PCR analysis; format: functional, cell-based

O=C1C[C@H]2C(=C3c4c2ccc(O)c4[C@@H](O)C[C@@H]3O)c2cccc(O)c21
active: inhibition (HUVEC [1]) Dose-dependent effect | inhibition (HUVEC [2]) | Activity (HUVEC [3]) | inhibition (HUVEC [4]) | Activity (HUVEC [5]) | inhibition (HUVEC [6]) Dose-dependent effect | inhibition (HUVEC [7]) | Activity (HUVEC [8]) | Activity (HUVEC [9])
